Test results: the supplement of paper PMC6045584
± gives the standard deviation of the averaged measurements.

Assays:
DASATINIB = compound: Cc1nc(Nc2ncc(C(=O)Nc3c(C)cccc3Cl)s2)cc(N2CCN(CCO)CC2)n1 [DASATINIB]; experiment: surviving fraction relative to DMSO-only wells; higher = less growth inhibition; conditions: exposure time: 5 days
Summary of the method: (§1)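 Log-phase tumour cell lines, 250–500 cells per well in 384-well plates, received inhibitors at 0.5, 1, 5, 10, 50, 100, 500 and 1000 nM continuously for five days, starting 24 hours after seeding. Viability was quantified with CellTiter-Glo luminescence and normalised to the median of DMSO-only wells to give surviving fraction. Three screens were run per line, and a line stayed in only with replicate Pearson r >0.7 and median Z' >0.3.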

OLAPARIB = compound: O=C(c1cc(Cc2n[nH]c(=O)c3ccccc23)ccc1F)N1CCN(C(=O)C2CC2)CC1 [OLAPARIB]; experiment: as above; conditions: exposure time: 5 days
Summary of the method: as §1

Row | Test System | surviving fraction (DASATINIB; 0.5 nM) | surviving fraction (DASATINIB; 1 nM) | surviving fraction (DASATINIB; 5 nM) | surviving fraction (DASATINIB; 10 nM) | surviving fraction (DASATINIB; 50 nM) | surviving fraction (DASATINIB; 100 nM) | surviving fraction (DASATINIB; 500 nM) | surviving fraction (DASATINIB; 1000 nM) | surviving fraction (OLAPARIB; 0.5 nM) | surviving fraction (OLAPARIB; 1 nM) | surviving fraction (OLAPARIB; 5 nM) | surviving fraction (OLAPARIB; 10 nM) | surviving fraction (OLAPARIB; 50 nM) | surviving fraction (OLAPARIB; 100 nM) | surviving fraction (OLAPARIB; 500 nM) | surviving fraction (OLAPARIB; 1000 nM)
1 | SUM149.B1*.S BREAST | 0.905 ± 0.034 | 0.879 ± 0.036 | 0.811 ± 0.024 | 0.75 ± 0.047 | 0.5 ± 0.018 | 0.358 ± 0.0082 | 0.332 ± 0.0043 | 0.353 ± 0.032 | 1.092 ± 0.0038 | 1.09 ± 0.094 | 1.08 ± 0.031 | 1.05 ± 0.022 | 1.03 ± 0.015 | 0.962 ± 0.035 | 1.04 ± 0.011 | 0.911 ± 0.04
2 | OS25HAL BONE | 0.88 ± 0.03 | 0.849 ± 0.013 | 0.849 ± 0.035 | 0.747 ± 0.035 | 0.686 ± 0.05 | 0.599 ± 0.074 | 0.45 ± 0.073 | 0.363 ± 0.045 | 1.01 ± 0.015 | 1.01 ± 0.033 | 1.04 ± 0.015 | 1.02 ± 0.025 | 1.05 ± 0.019 | 1.01 ± 0.017 | 1.005 ± 0.0085 | 0.99 ± 0.012
3 | MDAMB436 BREAST | 0.793 ± 0.052 | 0.861 ± 0.061 | 0.811 ± 0.091 | 0.826 ± 0.094 | 0.824 ± 0.082 | 0.775 ± 0.057 | 0.783 ± 0.061 | 0.757 ± 0.034 | 0.888 ± 0.1 | 0.878 ± 0.08 | 0.806 ± 0.056 | 0.795 ± 0.039 | 0.651 ± 0.011 | 0.606 ± 0.022 | 0.537 ± 0.022 | 0.469 ± 0.031
4 | LM7 BONE | 0.732 ± 0.032 | 0.694 ± 0.031 | 0.616 ± 0.044 | 0.576 ± 0.028 | 0.443 ± 0.036 | 0.338 ± 0.014 | 0.206 ± 0.031 | 0.211 ± 0.008 | 1 ± 0.081 | 0.976 ± 0.058 | 1.02 ± 0.071 | 0.963 ± 0.015 | 0.812 ± 0.042 | 0.829 ± 0.02 | 0.614 ± 0.0076 | 0.554 ± 0.014
5 | HELA CERVIX | 0.937 ± 0.085 | 0.934 ± 0.057 | 0.948 ± 0.037 | 0.909 ± 0.029 | 1.02 ± 0.029 | 1.04 ± 0.011 | 1.04 ± 0.061 | 1.06 ± 0.037 | 1.05 ± 0.064 | 1.09 ± 0.025 | 1.05 ± 0.031 | 1.04 ± 0.036 | 1.13 ± 0.03 | 1.18 ± 0.092 | 1.17 ± 0.014 | 1.19 ± 0.019
6 | 93VU HEADNECK | 0.779 ± 0.041 | 0.788 ± 0.054 | 0.829 ± 0.036 | 0.752 ± 0.053 | 0.276 ± 0.02 | 0.132 ± 0.016 | 0.0923 ± 0.0015 | 0.0923 ± 0.013 | 1.02 ± 0.1 | 1.01 ± 0.074 | 1.12 ± 0.033 | 1.07 ± 0.09 | 0.955 ± 0.072 | 0.955 ± 0.03 | 0.92 ± 0.049 | 0.837 ± 0.096
7 | ZR751 BREAST | 0.934 ± 0.066 | 0.965 ± 0.23 | 0.851 ± 0.098 | 0.835 ± 0.045 | 0.877 ± 0.12 | 0.852 ± 0.18 | 1 ± 0.14 | 0.922 ± 0.17 | 1.11 ± 0.17 | 1.08 ± 0.13 | 1.08 ± 0.35 | 1.01 ± 0.1 | 1.1 ± 0.023 | 1.11 ± 0.086 | 1.14 ± 0.089 | 1.02 ± 0.14
8 | S68 BREAST | 0.625 ± 0.11 | 0.51 ± 0.096 | 0.561 ± 0.11 | 0.419 ± 0.12 | 0.409 ± 0.029 | 0.418 ± 0.041 | 0.277 ± 0.053 | 0.298 ± 0.079 | 0.986 ± 0.17 | 0.927 ± 0.014 | 0.925 ± 0.23 | 0.896 ± 0.16 | 0.941 ± 0.084 | 0.771 ± 0.26 | 0.715 ± 0.15 | 0.612 ± 0.097
9 | SCC003 HEADNECK | 0.877 ± 0.036 | 0.843 ± 0.068 | 0.899 ± 0.13 | 0.813 ± 0.076 | 0.827 ± 0.025 | 0.654 ± 0.046 | 0.263 ± 0.014 | 0.149 ± 0.023 | 1.14 ± 0.066 | 1.03 ± 0.079 | 1.01 ± 0.072 | 1.09 ± 0.11 | 1.13 ± 0.052 | 1 ± 0.046 | 0.974 ± 0.12 | 0.881 ± 0.083
10 | 22RV1 PROSTATE | 1.15 ± 0.32 | 0.983 ± 0.09 | 1.1 ± 0.3 | 0.935 ± 0.097 | 1.01 ± 0.15 | 0.929 ± 0.056 | 1.04 ± 0.085 | 1.09 ± 0.16 | 1.08 ± 0.029 | 1.04 ± 0.044 | 1.05 ± 0.036 | 1.01 ± 0.09 | 1.06 ± 0.031 | 1 ± 0.05 | 1.04 ± 0.049 | 0.997 ± 0.051
11 | A549 LUNG | 0.915 ± 0.0066 | 0.9003 ± 0.0076 | 0.879 ± 0.02 | 0.859 ± 0.018 | 0.858 ± 0.033 | 0.8223 ± 0.0025 | 0.646 ± 0.028 | 0.631 ± 0.012 | 1.06 ± 0.036 | 1.07 ± 0.042 | 1.06 ± 0.031 | 1.05 ± 0.035 | 1.06 ± 0.025 | 1.04 ± 0.045 | 1.09 ± 0.021 | 1.02 ± 0.057
12 | SG43 HEADNECK | 0.98 ± 0.19 | 1.02 ± 0.16 | 0.592 ± 0.2 | 0.581 ± 0.2 | 0.337 ± 0.078 | 0.273 ± 0.13 | 0.206 ± 0.023 | 0.177 ± 0.054 | 1.18 ± 0.24 | 0.979 ± 0.16 | 0.835 ± 0.043 | 0.882 ± 0.095 | 1.19 ± 0.025 | 1.01 ± 0.059 | 0.982 ± 0.11 | 0.935 ± 0.042
13 | JURKAT HAEMATOPOIETIC AND LYMPHOID TISSUE | 1.033 ± 0.0046 | 0.984 ± 0.034 | 0.927 ± 0.011 | 0.892 ± 0.011 | 0.886 ± 0.043 | 0.785 ± 0.024 | 0.614 ± 0.028 | 0.432 ± 0.016 | 1.1 ± 0.022 | 1.12 ± 0.03 | 1.08 ± 0.03 | 1.07 ± 0.014 | 1.038 ± 0.0047 | 0.994 ± 0.024 | 1 ± 0.019 | 0.847 ± 0.029
14 | 143B BONE | 1.04 ± 0.058 | 1.03 ± 0.025 | 1.01 ± 0.046 | 0.9835 ± 0.00071 | 0.8695 ± 0.005 | 0.806 ± 0.019 | 0.7575 ± 0.0035 | 0.75 ± 0.042 | 1.025 ± 0.0014 | 1.044 ± 0.0092 | 1.04 ± 0.019 | 1 ± 0.025 | 1.05 ± 0.027 | 1.01 ± 0.017 | 1.02 ± 0.023 | 0.9915 ± 0.005
15 | SCC36 HEADNECK | 0.788 ± 0.13 | 0.676 ± 0.033 | 0.705 ± 0.078 | 0.678 ± 0.1 | 0.385 ± 0.078 | 0.19 ± 0.032 | 0.12 ± 0.013 | 0.112 ± 0.011 | 1 ± 0.045 | 0.993 ± 0.12 | 1.06 ± 0.018 | 0.948 ± 0.12 | 0.837 ± 0.1 | 0.697 ± 0.027 | 0.705 ± 0.066 | 0.596 ± 0.066
16 | SUM159 BREAST | 0.948 ± 0.026 | 0.981 ± 0.011 | 0.955 ± 0.015 | 0.921 ± 0.022 | 0.907 ± 0.011 | 0.778 ± 0.048 | 0.59 ± 0.035 | 0.606 ± 0.055 | 1.12 ± 0.075 | 1.05 ± 0.066 | 1.084 ± 0.01 | 1.06 ± 0.016 | 1.05 ± 0.051 | 0.948 ± 0.24 | 1.02 ± 0.079 | 0.993 ± 0.091
17 | HCC202 BREAST | 0.999 ± 0.37 | 1.23 ± 0.21 | 0.816 ± 0.2 | 0.907 ± 0.31 | 0.697 ± 0.21 | 0.722 ± 0.042 | 0.509 ± 0.019 | 0.505 ± 0.21 | 0.896 ± 0.024 | 0.973 ± 0.12 | 0.987 ± 0.19 | 0.92 ± 0.2 | 0.713 ± 0.2 | 0.68 ± 0.026 | 0.737 ± 0.075 | 0.649 ± 0.1
18 | OSHN BONE | 0.889 ± 0.016 | 0.9163 ± 0.0047 | 0.865 ± 0.035 | 0.83 ± 0.014 | 0.915 ± 0.012 | 0.891 ± 0.023 | 0.662 ± 0.13 | 0.46 ± 0.17 | 1.06 ± 0.021 | 1.05 ± 0.023 | 1.07 ± 0.032 | 1.04 ± 0.023 | 1.003 ± 0.01 | 0.984 ± 0.011 | 0.984 ± 0.017 | 0.917 ± 0.013
19 | CADOES1 SOFT TISSUE | 1.04 ± 0.07 | 1.01 ± 0.034 | 0.91 ± 0.042 | 0.939 ± 0.11 | 1.01 ± 0.079 | 0.973 ± 0.081 | 1.05 ± 0.099 | 1.14 ± 0.1 | 1.01 ± 0.059 | 0.855 ± 0.072 | 1.03 ± 0.07 | 0.8393 ± 0.0035 | 0.951 ± 0.046 | 0.953 ± 0.076 | 0.895 ± 0.084 | 0.81 ± 0.14
20 | SCC47 HEADNECK | 0.961 ± 0.073 | 0.965 ± 0.067 | 0.971 ± 0.065 | 0.9 ± 0.039 | 0.698 ± 0.0083 | 0.38 ± 0.027 | 0.078 ± 0.011 | 0.0587 ± 0.0074 | 1.1 ± 0.09 | 0.994 ± 0.062 | 1.14 ± 0.042 | 1.07 ± 0.086 | 1.08 ± 0.098 | 0.989 ± 0.079 | 0.977 ± 0.043 | 1.03 ± 0.11
21 | BT20 BREAST | 0.767 ± 0.056 | 0.729 ± 0.02 | 0.699 ± 0.026 | 0.739 ± 0.11 | 0.774 ± 0.13 | 0.798 ± 0.061 | 0.752 ± 0.034 | 0.705 ± 0.036 | 0.996 ± 0.12 | 1.14 ± 0.055 | 0.942 ± 0.14 | 1.04 ± 0.096 | 0.757 ± 0.1 | 0.732 ± 0.13 | 0.795 ± 0.21 | 0.773 ± 0.085
